From US20070128217A1 (priority 2003, published 2007)

What was measured:
[1] = system: control sera (pooled serum of ten healthy LUMC hospital workers; commercial negative donor pooled serum from the Dutch bloodbank); type: binding, human; parameters: Binding of Control serum LUMC to linear peptides / Binding of Control serum Blood-bank to linear peptides / Binding of Control serum LUMC to looped peptides / Binding of Control Serum Blood-Bank to Looped peptides / Binding of Control serum LUMC to linear peptides of the protein M of SARS-CoV Urbani / Binding of Control serum Blood-bank to linear peptides of the protein M of SARS-CoV Urbani / Binding of Control serum LUMC to looped peptides of the protein M of SARS-CoV Urbani / Binding of Control Serum Blood-Bank to Looped peptides of the protein M of SARS-CoV Urbani: unit not given here
[2] = system: antibodies in sera from SARS patients (sera 1a, 1b, 2, 6, 37, 62, London, SARS-yellow, SARS-green); type: binding, human; parameters: Binding of serum 6 to linear peptides of protein X1 of SARS-CoV Urbani / Binding of serum 37 to linear peptides of protein X1 of SARS-CoV Urbani / Binding of serum 6 to looped/cyclic peptide (PEPSCAN-ELISA) / Binding of serum 37 to looped/cyclic peptide (PEPSCAN-ELISA) / Binding of serum 37 to looped/cyclic peptides of protein X1 of SARS-CoV Urbani / Binding of serum 6 to linear peptides of protein X2 / Binding of serum 37 to linear peptides of protein X2 / Binding of serum 37 to looped/cyclic peptides of protein X2 of SARS-CoV Urbani / Binding of serum 6 to linear peptides of protein M of SARS-CoV Urbani / Binding of serum 37 to linear peptides of protein M of SARS-CoV Urbani / Binding of serum 6 to looped/cyclic peptides of protein M of SARS-CoV Urbani / Binding of serum 37 to looped/cyclic peptides of protein M of SARS-CoV Urbani / Binding of serum 6 to linear peptides of protein X3 of SARS-CoV Urbani / Binding of serum 37 to linear peptides of protein X3 of SARS-CoV Urbani / Binding of serum 37 to looped/cyclic peptides of protein X3 of SARS-CoV Urbani / Binding of serum 6 to linear peptides of protein X4 of SARS-CoV Urbani / Binding of serum 37 to linear peptides of protein X4 of SARS-CoV Urbani / Binding of serum 37 to looped/cyclic peptides of protein X4 of SARS-CoV Urbani / Binding of serum 6 to linear peptides of protein X5 of SARS-CoV Urbani / Binding of serum 37 to linear peptides of protein X5 of SARS-CoV Urbani / Binding of serum 37 to looped/cyclic peptides of protein X5 of SARS-CoV Urbani / Binding of serum 6 to linear peptides of protein N of SARS-CoV Urbani / Binding of serum 37 to linear peptides of protein N of SARS-CoV Urbani / Binding of serum 6 to linear peptide (PEPSCAN-ELISA) / Binding of serum 1a to looped/cyclic peptides of protein N of SARS-CoV Urbani / Binding of serum 1b to looped/cyclic peptides of protein N of SARS-CoV Urbani / Binding of serum 2 to looped/cyclic peptides of protein N of SARS-CoV Urbani / Binding of serum 6 to looped/cyclic peptides of protein N of SARS-CoV Urbani / Binding of serum 37 to looped/cyclic peptides of protein N of SARS-CoV Urbani / Binding of serum 62 to looped/cyclic peptides of protein N of SARS-CoV Urbani / Binding of serum London to looped/cyclic peptides of protein N of SARS-CoV Urbani / Binding of serum SARS-green to looped/cyclic peptides of protein N of SARS-CoV Urbani: unit not given here
[3] = system: rabbit serum obtained by immunizing a rabbit with the SARS-CoV strain Frankfurt 1; type: binding; parameters: Binding of a rabbit serum to linear peptides / Binding of a rabbit serum to looped peptides / Rabbit serum linear peptides / Rabbit serum looped peptides / Binding of a rabbit serum to linear peptides of protein N of SARS-CoV Urbani (Rabbit serum linear peptides) / Binding of a rabbit serum to looped/cyclic peptides of protein N of SARS-CoV Urbani (Rabbit serum looped peptides): unit not given here

Sequence: DTGIENATFFIFNKL
- Binding of Control Serum Blood-Bank to Looped peptides [1]: 0.7
- Binding of Control serum Blood-bank to linear peptides [1]: 0.6
- Binding of Control serum LUMC to linear peptides [1]: 0.5
- Binding of Control serum LUMC to looped peptides [1]: 0.9
- Binding of serum 1a to linear peptides of protein X1 of SARS-CoV Urbani [2]: 0.7
- Binding of serum 1a to looped/cyclic peptides of protein X1 of SARS-CoV Urbani [2]: 0.6
- Binding of serum 1b to linear peptides of protein X1 of SARS-CoV Urbani [2]: 0.5
- Binding of serum 1b to looped/cyclic peptides of protein X1 of SARS-CoV Urbani [2]: 0.5
- Binding of serum 2 to linear peptides of protein X1 of SARS-CoV Urbani [2]: 0.5
- Binding of serum 2 to looped/cyclic peptides of protein X1 of SARS-CoV Urbani [2]: 0.6
- Binding of serum 6 to linear peptides of protein X1 of SARS-CoV Urbani [2]: 0.4
- Binding of serum 6 to looped/cyclic peptides of protein X1 of SARS-CoV Urbani [2]: 0.2
- Binding of serum 37 to linear peptides of protein X1 of SARS-CoV Urbani [2]: 0.7
- Binding of serum 37 to looped/cyclic peptides of protein X1 of SARS-CoV Urbani [2]: 0.7
- Binding of serum 62 to linear peptides of protein X1 of SARS-CoV Urbani [2]: 0.6
- Binding of serum 62 to looped/cyclic peptides of protein X1 of SARS-CoV Urbani [2]: 0.6
- Binding of serum London to linear peptides of protein X1 of SARS-CoV Urbani [2]: 0.4
- Binding of serum London to looped/cyclic peptides of protein X1 of SARS-CoV Urbani [2]: 0.2
- Binding of serum SARS-green to linear peptides of protein X1 of SARS-CoV Urbani [2]: 0.3
- Binding of serum SARS-green to looped/cyclic peptides of protein X1 of SARS-CoV Urbani [2]: 0.4
- Binding of serum SARS-yellow to linear peptides of protein X1 of SARS-CoV Urbani [2]: 0.4
- Binding of serum SARS-yellow to looped/cyclic peptides of protein X1 of SARS-CoV Urbani [2]: 0.6
- Binding of a rabbit serum to linear peptides [3]: 0.1
- Binding of a rabbit serum to looped peptides [3]: 0.6

Sequence: DVIISSIVRQLFKPL
- Binding of Control Serum Blood-Bank to Looped peptides of the protein X3 of SARS-CoV Urbani [1]: 0.5
- Binding of Control serum Blood-bank to linear peptides of the protein X3 of SARS-CoV Urbani [1]: 0.6
- Binding of Control serum LUMC to linear peptides of the protein X3 of SARS-CoV Urbani [1]: 0.4
- Binding of Control serum LUMC to looped peptides of the protein X3 of SARS-CoV Urbani [1]: 0.5
- Binding of serum 1a to linear peptides of protein X3 of SARS-CoV Urbani [2]: 0.7
- Binding of serum 1a to looped/cyclic peptides of protein X3 of SARS-CoV Urbani [2]: 0.6
- Binding of serum 1b to linear peptides of protein X3 of SARS-CoV Urbani [2]: 0.4
- Binding of serum 1b to looped/cyclic peptides of protein X3 of SARS-CoV Urbani [2]: 0.2
- Binding of serum 2 to linear peptides of protein X3 of SARS-CoV Urbani [2]: 0.5
- Binding of serum 2 to looped/cyclic peptides of protein X3 of SARS-CoV Urbani [2]: 0.5
- Binding of serum 6 to linear peptides of protein X3 of SARS-CoV Urbani [2]: 0.3
- Binding of serum 6 to looped/cyclic peptides of protein X3 of SARS-CoV Urbani [2]: 0.6
- Binding of serum 37 to linear peptides of protein X3 of SARS-CoV Urbani [2]: 0.6
- Binding of serum 37 to looped/cyclic peptides of protein X3 of SARS-CoV Urbani [2]: 0.5
- Binding of serum 62 to linear peptides of protein X3 of SARS-CoV Urbani [2]: 0.6
- Binding of serum 62 to looped/cyclic peptides of protein X3 of SARS-CoV Urbani [2]: 0.4
- Binding of serum London to linear peptides of protein X3 of SARS-CoV Urbani [2]: 0.6
- Binding of serum London to looped/cyclic peptides of protein X3 of SARS-CoV Urbani [2]: 0.6
- Binding of serum SARS-green to linear peptides of protein X3 of SARS-CoV Urbani [2]: 0.3
- Binding of serum SARS-green to looped/cyclic peptides of protein X3 of SARS-CoV Urbani [2]: 0.4
- Binding of serum SARS-yellow to linear peptides of protein X3 of SARS-CoV Urbani [2]: 0.2
- Binding of serum SARS-yellow to looped/cyclic peptides of protein X3 of SARS-CoV Urbani [2]: 0.5
- Rabbit serum linear peptides [3]: 0.5
- Rabbit serum looped peptides [3]: 0.2

Sequence: ELKQLLEQWNLVIGF
- Binding of Control Serum Blood-Bank to Looped peptides of the protein M of SARS-CoV Urbani [1]: 0.6
- Binding of Control serum Blood-bank to linear peptides of the protein M of SARS-CoV Urbani [1]: 0.8
- Binding of Control serum LUMC to linear peptides of the protein M of SARS-CoV Urbani [1]: 0.7
- Binding of Control serum LUMC to looped peptides of the protein M of SARS-CoV Urbani [1]: 0.7
- Binding of serum 1a to linear peptides of protein M of SARS-CoV Urbani [2]: 0.8
- Binding of serum 1a to looped/cyclic peptides of protein M of SARS-CoV Urbani [2]: 0.6
- Binding of serum 1b to linear peptides of protein M of SARS-CoV Urbani [2]: 0.8
- Binding of serum 1b to looped/cyclic peptides of protein M of SARS-CoV Urbani [2]: 0.6
- Binding of serum 2 to linear peptides of protein M of SARS-CoV Urbani [2]: 0.5
- Binding of serum 2 to looped/cyclic peptides of protein M of SARS-CoV Urbani [2]: 0.5
- Binding of serum 6 to linear peptides of protein M of SARS-CoV Urbani [2]: 0.6
- Binding of serum 6 to looped/cyclic peptides of protein M of SARS-CoV Urbani [2]: 0.8
- Binding of serum 37 to linear peptides of protein M of SARS-CoV Urbani [2]: 0.6
- Binding of serum 37 to looped/cyclic peptides of protein M of SARS-CoV Urbani [2]: 0.7
- Binding of serum 62 to linear peptides of protein M of SARS-CoV Urbani [2]: 0.5
- Binding of serum 62 to looped/cyclic peptides of protein M of SARS-CoV Urbani [2]: 0.5
- Binding of serum London to linear peptides of protein M of SARS-CoV Urbani [2]: 0.6
- Binding of serum London to looped/cyclic peptides of protein M of SARS-CoV Urbani [2]: 0.3
- Binding of serum SARS-green to linear peptides of protein M of SARS-CoV Urbani [2]: 0.5
- Binding of serum SARS-green to looped/cyclic peptides of protein M of SARS-CoV Urbani [2]: 0.7
- Binding of serum SARS-yellow to linear peptides of protein M of SARS-CoV Urbani [2]: 0.3
- Binding of serum SARS-yellow to looped/cyclic peptides of protein M of SARS-CoV Urbani [2]: 0.9
- Rabbit serum linear peptides [3]: 0.0
- Rabbit serum looped peptides [3]: 0.2

Sequence: ELYSPLFLIVAALVF
- Binding of Control Serum Blood-Bank to Looped peptides [1]: 0.7
- Binding of Control serum Blood-bank to linear peptides [1]: 0.5
- Binding of Control serum LUMC to linear peptides [1]: 0.3
- Binding of Control serum LUMC to looped peptides [1]: 0.7
- Binding of serum 1a to linear peptides of protein X4 of SARS-CoV Urbani [2]: 0.7
- Binding of serum 1a to looped/cyclic peptides of protein X4 of SARS-CoV Urbani [2]: 0.6
- Binding of serum 1b to linear peptides of protein X4 of SARS-CoV Urbani [2]: 0.4
- Binding of serum 1b to looped/cyclic peptides of protein X4 of SARS-CoV Urbani [2]: 0.4
- Binding of serum 2 to linear peptides of protein X4 of SARS-CoV Urbani [2]: 0.4
- Binding of serum 2 to looped/cyclic peptides of protein X4 of SARS-CoV Urbani [2]: 0.6
- Binding of serum 6 to linear peptides of protein X4 of SARS-CoV Urbani [2]: 0.4
- Binding of serum 6 to looped/cyclic peptides of protein X4 of SARS-CoV Urbani [2]: 0.4
- Binding of serum 37 to linear peptides of protein X4 of SARS-CoV Urbani [2]: 0.6
- Binding of serum 37 to looped/cyclic peptides of protein X4 of SARS-CoV Urbani [2]: 0.6
- Binding of serum 62 to linear peptides of protein X4 of SARS-CoV Urbani [2]: 0.6
- Binding of serum 62 to looped/cyclic peptides of protein X4 of SARS-CoV Urbani [2]: 0.6
- Binding of serum London to linear peptides of protein X4 of SARS-CoV Urbani [2]: 0.5
- Binding of serum London to looped/cyclic peptides of protein X4 of SARS-CoV Urbani [2]: 0.2
- Binding of serum SARS-green to linear peptides of protein X4 of SARS-CoV Urbani [2]: 0.5
- Binding of serum SARS-green to looped/cyclic peptides of protein X4 of SARS-CoV Urbani [2]: 0.5
- Binding of serum SARS-yellow to linear peptides of protein X4 of SARS-CoV Urbani [2]: 0.2
- Binding of serum SARS-yellow to looped/cyclic peptides of protein X4 of SARS-CoV Urbani [2]: 0.6
- Rabbit serum linear peptides [3]: 0.4
- Rabbit serum looped peptides [3]: 0.5
